# Literature values as cited in patent EP2133696A1, “Very low concentrations of troponin I or T for assessing a cardiovascular risk with respect to the administration of anti-inflammatory drugs” (Spanuth, Eberhardt, priority 2008, dated 2009).
smiles,measurement,setting,value
CS(=O)(=O)c1ccc(C2=C(c3ccccc3)C(=O)OC2)cc1 [Rofecoxib],"additional cardiovascular incidents (myocardial infarction, stroke)","25 mg rofecoxib compared with a placebo, after 18 months of follow-up","16 per 1,000 treated patients"
same,blood pressure levels,"25 mg rofecoxib versus placebo, early post-observation phase",higher blood pressure levels
same,rise in the rate of serious thromboembolic incidents,"APPROVE study, led to premature discontinuation, patients without any recognisable cardiovascular risk",3.9 times
